According to publication PMC10304291, “THC-Reduced Cannabis sativa L.—How Does the Solvent Determine the Bioavailability of Cannabinoids Given Orally?” (Nutrients, 2023):

Legend:
[1] = rats; 3 or 6 h after oral CBD 50 mg/kg in olive oil; cited from earlier work
[2] = mini-pigs; oral CBD 15 mg/kg; cited from earlier work
[3] = 12 healthy volunteers; chocolate cookies with 0.57 mg/kg CBD + 0.28 mg/kg THC; after 1.5–3 h; cited from earlier work
[4] = Brain pharmacokinetics of CBD and THC after single oral dose of Cannabis sativa extract; conditions: for mean concentration over time / Kp / concentration at 0.5 h / concentration at 1 h / concentration at 2 h / concentration at 4 h / concentration at 6 h / AUC(0-t) / Cmax / MRT: single oral dose of extract 30 mg/kg; for mean concentration over time: Table 7; for Kp: brain / whole blood, AUCbrain:AUC whole blood (AUC0–24 ratio); for concentration at 0.5 h / concentration at 1 h / concentration at 2 h / concentration at 4 h / concentration at 6 h: oral; for AUC(0-t): AUC0–24, brain
[5] = Whole-blood pharmacokinetics of CBD and THC after single oral dose of Cannabis sativa extract; conditions: whole blood, single oral dose of extract 30 mg/kg; for concentration at 0.5 h / concentration at 1 h / concentration at 2 h / concentration at 4 h / concentration at 6 h / concentration at 24 h / AUC(0-t) / Cmax / MRT / Tmax: male, Wistar, rat, 30 mg/kg; for concentration at 0.5 h / concentration at 1 h / concentration at 2 h / concentration at 4 h / concentration at 6 h / concentration at 24 h: oral; for AUC(0-t) / Cmax / MRT / Tmax: po; for AUC(0-t): AUC0–24, whole blood
[6] = male, Wistar, rat, brain, po, 30 mg/kg, Cremophor
[7] = male, Wistar, rat, brain, po, 30 mg/kg, Rapae oleum
[8] = Mean Concentration ± SD, blood, Rapae oleum
[9] = Mean Concentration, blood, Cremophor
[10] = mean concentration over time, Blood/Cremophor, Table 7
[11] = mean concentration over time, Blood/Rapae Oleum, Table 7

CCCCCc1cc(O)c2c(c1)OC(C)(C)[C@@H]1CCC(C)=C[C@@H]21 [THC, Δ-9-tetrahydrocannabinol]
Δ9-THC in the blood after oral CBD [1]: did not detect
Δ9-THC after oral CBD [2]: did not detect
whole-blood concentration [3]: about 5 ng/mL
mean concentration over time ([4]; Brain/Cremophor, 0.5 h): 18.575
mean concentration over time ([4]; Brain/Cremophor, 1 h): 49.521
mean concentration over time ([4]; Brain/Cremophor, 2 h): 56.85
mean concentration over time ([4]; Brain/Cremophor, 4 h): 35.976
mean concentration over time ([4]; Brain/Cremophor, 6 h): 35.947
mean concentration over time ([4]; Brain/Cremophor, 24 h): 1.154
mean concentration over time ([4]; Brain/Rapae oleum, 0.5 h): 3.719
mean concentration over time ([4]; Brain/Rapae oleum, 1 h): 43.593
mean concentration over time ([4]; Brain/Rapae oleum, 2 h): 75.768
mean concentration over time ([4]; Brain/Rapae oleum, 4 h): 27.792
mean concentration over time ([4]; Brain/Rapae oleum, 6 h): 3.7605
mean concentration over time ([4]; Brain/Rapae oleum, 24 h): 0
Kp ([4]; male, Wistar, rat, po, 30 mg/kg, Cremophor): 1.22
Kp ([4]; male, Wistar, rat, po, 30 mg/kg, Rapae oleum): 3.72
concentration at 0.5 h ([4]; male, Wistar, rat, brain, 30 mg/kg, Mean Concentration ± SD, Rapae oleum, 0.5 h): 3.72 ± 2.35 ng/g
concentration at 1 h ([4]; male, Wistar, rat, brain, 30 mg/kg, Mean Concentration ± SD, Rapae oleum, 1 h): 43.6 ± 24.8 ng/g
concentration at 2 h ([4]; male, Wistar, rat, brain, 30 mg/kg, Mean Concentration ± SD, Rapae oleum, 2 h): 75.8 ± 43.8 ng/g
concentration at 4 h ([4]; male, Wistar, rat, brain, 30 mg/kg, Mean Concentration ± SD, Rapae oleum, 4 h): 27.8 ± 15.2 ng/g
concentration at 6 h ([4]; male, Wistar, rat, brain, 30 mg/kg, Mean Concentration ± SD, Rapae oleum, 6 h): 3.76 ± 2.61 ng/g
concentration at 0.5 h ([4]; male, Wistar, rat, brain, 30 mg/kg, Mean Concentration, Cremophor, 0.5 h): 18.6 ± 11.6 ng/g
concentration at 1 h ([4]; male, Wistar, rat, brain, 30 mg/kg, Mean Concentration, Cremophor, 1 h): 49.5 ± 9.47 ng/g
concentration at 2 h ([4]; male, Wistar, rat, brain, 30 mg/kg, Mean Concentration, Cremophor, 2 h): 56.9 ± 7.39 ng/g
concentration at 4 h ([4]; male, Wistar, rat, brain, 30 mg/kg, Mean Concentration, Cremophor, 4 h): 36 ± 7.45 ng/g
concentration at 6 h ([4]; male, Wistar, rat, brain, 30 mg/kg, Mean Concentration, Cremophor, 6 h): 35.9 ± 12.7 ng/g
Tmax ([4]; male, Wistar, rat, brain, po, 30 mg/kg): 4 h
AUC(0-t) [4, 6]: 656 ng·h/mL
AUC(0-t) [4, 7]: 553 ng·h/mL
Cmax [4, 6]: 56.9 ng/g
Cmax [4, 7]: 75.8 ng/g
MRT [4, 6]: 5.11 h
MRT [4, 7]: 7.19 h
concentration at 0.5 h [5, 8]: 11.9 ± 18 ng/g
concentration at 1 h [5, 8]: 11 ± 5.21 ng/g
concentration at 2 h [5, 8]: 24 ± 7.22 ng/g
concentration at 4 h [5, 8]: 26.2 ± 19.1 ng/g
concentration at 6 h [5, 8]: 10.3 ± 2.1 ng/g
concentration at 24 h [5, 8]: 0.445 ± 0.21 ng/g
concentration at 0.5 h [5, 9]: 13.1 ± 10.9 ng/g
concentration at 1 h [5, 9]: 18.5 ± 1.98 ng/g
concentration at 2 h [5, 9]: 14 ± 3.3 ng/g
concentration at 4 h [5, 9]: 8.01 ± 1.48 ng/g
concentration at 6 h [5, 9]: 9.04 ± 4.39 ng/g
concentration at 24 h [5, 9]: 3.79 ± 4.59 ng/g
concentration at 0.5 h [5, 10]: 13.1 ng/mL
concentration at 1 h [5, 10]: 18.5 ng/mL
concentration at 2 h [5, 10]: 14 ng/mL
concentration at 4 h [5, 10]: 8.01 ng/mL
concentration at 6 h [5, 10]: 9.04 ng/mL
concentration at 24 h [5, 10]: 3.79 ng/mL
concentration at 0.5 h [5, 11]: 11.9 ng/mL
concentration at 1 h [5, 11]: 11 ng/mL
concentration at 2 h [5, 11]: 24 ng/mL
concentration at 4 h [5, 11]: 26.2 ng/mL
concentration at 6 h [5, 11]: 10.3 ng/mL
concentration at 24 h [5, 11]: 0.445 ng/mL
AUC(0-t) ([5]; Cremophor): 217 ng·h/mL
AUC(0-t) ([5]; Rapae oleum): 186 ng·h/mL
Cmax ([5]; Cremophor): 18.5 ng/mL
Cmax ([5]; Rapae oleum): 26.2 ng/mL
MRT ([5]; Cremophor): 12.7 h
MRT ([5]; Rapae oleum): 5.75 h
Tmax ([5]; Cremophor): 1 h
Tmax ([5]; Rapae oleum): 4 h
CL ([5]; Cremophor): 2.18 L/h
Vd ([5]; Cremophor): 28.26 L
CL ([5]; Rapae oleum): 2.56 L/h
Vd ([5]; Rapae oleum): 15.15 L
